Source: patent US8952024B2, “Herbicidal pyrimidone derivatives” (E I du Pont de Nemours and Company, priority 2009, dated 2015)

How the values were obtained:
Experiment in all cases: Test D pre-/postemergence plant response
Format in all cases: in vivo
[1] = tested on: groundsel (common groundsel, Senecio vulgaris); settings: Postemergence
In short: (§1)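 Seeds were sown in a loam–sand blend and sprayed preemergence with compound in a non-phytotoxic solvent mixture containing surfactant; plants at 2–18 cm (1- to 4-leaf stage) received the same formulation postemergence. After 14 to 21 days in a greenhouse, injury was rated visually against untreated controls (0 = no effect, 100 = complete control).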

[2] = tested on: Italian ryegrass (Lolium multiflorum)
In short: as §1

[3] = tested on: mallow (common mallow, Malva sylvestris)
In short: as §1

[4] = tested on: bermudagrass (Cynodon dactylon)
In short: as §1

[5] = tested on: Surinam grass (Brachiaria decumbens)
In short: as §1

[6] = tested on: sandbur (southern sandbur, Cenchrus echinatus)
In short: as §1

[7] = tested on: dayflower (Virginia (VA) dayflower, Commelina virginica)
In short: as §1

[8] = tested on: Russian thistle (Salsola kali)
In short: as §1

[9] = tested on: quackgrass (Elytrigia repens)
In short: as §1

[10] = tested on: naked crabgrass (Digitaria nuda)
In short: as §1

[11] = tested on: guineagrass (Panicum maximum)
In short: as §1

[12] = tested on: spanishneedles (Bidens bipinnata)
In short: as §1

[13] = tested on: field bindweed (Convolvulus arvensis)
In short: as §1

[14] = tested on: signalgrass (broadleaf signalgrass, Brachiaria platyphylla)
In short: as §1

[15] = tested on: black mustard (Brassica nigra)
In short: as §1

[16] = 125 g ai/ha, scale 0 to 100 (0 no effect, 100 complete control)
[17] = 62 g ai/ha, scale 0 to 100 (0 no effect, 100 complete control)
[18] = Postemergence, 16 g ai/ha, scale 0 to 100
[19] = Postemergence, 31 g ai/ha, scale 0 to 100
[20] = Postemergence, 125 g ai/ha, scale 0 to 100 (0 no effect, 100 complete control)
[21] = Postemergence, 62 g ai/ha, scale 0 to 100 (0 no effect, 100 complete control)
[22] = Preemergence, 16 g ai/ha, scale 0 to 100, 0 no effect, 100 complete control
[23] = Preemergence, 31 g ai/ha, scale 0 to 100 (0 no effect, 100 complete control)
[24] = Preemergence, 125 g ai/ha, scale 0 to 100
[25] = Preemergence, 62 g ai/ha, scale 0 to 100
[26] = Postemergence, 31 g ai/ha, scale 0 to 100 (0 no effect, 100 complete control)
[27] = Postemergence, 250 g ai/ha, scale 0 to 100 (0 no effect, 100 complete control)

In the case of Cc1ccc(F)c(-n2c(-c3ccccc3)ncc(C(=O)C3=C(O)CCCC3=O)c2=O)c1 [Compound 51], the “Plant response rating, Groundsel” value ([1]; 16 g ai/ha, scale 0 to 100) is reported as 85, the “Plant response rating, Groundsel” value ([1]; 31 g ai/ha, scale 0 to 100) is reported as 98 and the “Plant response rating, Groundsel” value [1, 16] is reported as 100. For the same compound, the “Plant response rating, Groundsel” value [1, 17] was 100, the “Plant response rating, Ryegrass, Italian” value [2, 18] was 0 and the “Plant response rating, Ryegrass, Italian” value [2, 19] was 0. For the same compound, the “Plant response rating, Ryegrass, Italian” value [2, 20] was 0, the “Plant response rating, Ryegrass, Italian” value [2, 21] was 0 and the “Plant response rating, Ryegrass, Italian” value [2, 22] was 0. The “Plant response rating, Ryegrass, Italian” value [2, 23] was 0, the “Plant response rating, Ryegrass, Italian” value [2, 24] was 0 and the “Plant response rating, Mallow” value [3, 18] was 0. The “Plant response rating, Mallow” value [3, 19] was 0, the “Plant response rating, Mallow” value [3, 20] was 20 and the “Plant response rating, Mallow” value [3, 21] was 0. For the same compound, the “Plant response rating, Mallow” value [3, 22] was 0, the “Plant response rating, Mallow” value [3, 23] was 0 and the “Plant response rating, Mallow” value [3, 25] was 0. The “Plant response rating, Mallow” value [3, 24] was 65, the “Plant response rating, Bermudagrass” value [4, 18] was 65 and the “Plant response rating, Bermudagrass” value [4, 26] was 75. The “Plant response rating, Bermudagrass” value [4, 20] was 85, the “Plant response rating, Bermudagrass” value [4, 21] was 80 and the “Plant response rating, Bermudagrass” value [4, 22] was 0. The “Plant response rating, Bermudagrass” value [4, 23] was 0, the “Plant response rating, Bermudagrass” value [4, 25] was 0 and the “Plant response rating, Bermudagrass” value [4, 24] was 30. The “Plant response rating, Surinam Grass” value [5, 18] was 50, the “Plant response rating, Surinam Grass” value [5, 19] was 60 and the “Plant response rating, Surinam Grass” value [5, 20] was 80. The “Plant response rating, Surinam Grass” value [5, 21] was 70, the “Plant response rating, Surinam Grass” value [5, 22] was 90 and the “Plant response rating, Surinam Grass” value [5, 23] was 98. The “Plant response rating, Sandbur” value [6, 18] was 5, the “Plant response rating, Sandbur” value [6, 19] was 25 and the “Plant response rating, Sandbur” value [6, 20] was 60. The “Plant response rating, Sandbur” value [6, 21] was 25, the “Plant response rating, Sandbur” value [6, 22] was 0 and the “Plant response rating, Sandbur” value [6, 23] was 0. For the same compound, the “Plant response rating, Sandbur” value [6, 24] was 75, the “Plant response rating, Dayflower, VA” value [7, 18] was 10 and the “Plant response rating, Dayflower, VA” value [7, 19] was 10. The “Plant response rating, Dayflower, VA” value [7, 20] was 20, the “Plant response rating, Dayflower, VA” value [7, 21] was 10 and the “Plant response rating, Dayflower, VA” value [7, 22] was 0. The “Plant response rating, Dayflower, VA” value [7, 23] was 0, the “Plant response rating, Dayflower, VA” value [7, 24] was 0 and the “Plant response rating, Russian Thistle” value [8, 18] was 0. For the same compound, the “Plant response rating, Russian Thistle” value [8, 24] was 75, the “Plant response rating, Quackgrass” value [9, 18] was 0 and the “Plant response rating, Quackgrass” value [9, 19] was 0. The “Plant response rating, Quackgrass” value [9, 20] was 0, the “Plant response rating, Quackgrass” value [9, 21] was 0 and the “Plant response rating, Quackgrass” value [9, 22] was 0. The “Plant response rating, Quackgrass” value [9, 23] was 0, the “Plant response rating, Quackgrass” value [9, 24] was 0 and the “Plant response rating, Crabgrass, Naked” value [10, 18] was 35. For the same compound, the “Plant response rating, Crabgrass, Naked” value [10, 19] was 50, the “Plant response rating, Crabgrass, Naked” value [10, 20] was 65 and the “Plant response rating, Crabgrass, Naked” value [10, 22] was 0. The “Plant response rating, Crabgrass, Naked” value [10, 23] was 0, the “Plant response rating, Crabgrass, Naked” value [10, 25] was 0 and the “Plant response rating, Crabgrass, Naked” value [10, 24] was 0. The “Plant response rating, Guineagrass” value [11, 18] was 20, the “Plant response rating, Guineagrass” value [11, 19] was 30 and the “Plant response rating, Guineagrass” value [11, 20] was 50. The “Plant response rating, Guineagrass” value [11, 21] was 30, the “Plant response rating, Guineagrass” value [11, 22] was 0 and the “Plant response rating, Guineagrass” value [11, 23] was 0. For the same compound, the “Plant response rating, Guineagrass” value [11, 25] was 0, the “Plant response rating, Guineagrass” value [11, 24] was 75 and the “Plant response rating, Spanishneedles” value [12, 18] was 35. For the same compound, the “Plant response rating, Spanishneedles” value [12, 19] was 50, the “Plant response rating, Spanishneedles” value [12, 20] was 70 and the “Plant response rating, Spanishneedles” value [12, 21] was 60. For the same compound, the “Plant response rating, Spanishneedles” value [12, 22] was 0, the “Plant response rating, Spanishneedles” value [12, 23] was 0 and the “Plant response rating, Spanishneedles” value [12, 24] was 98. The “Plant response rating, Field Bindweed” value [13, 18] was 5, the “Plant response rating, Field Bindweed” value [13, 19] was 5 and the “Plant response rating, Field Bindweed” value [13, 20] was 60. The “Plant response rating, Field Bindweed” value [13, 21] was 20, the “Plant response rating, Field Bindweed” value [13, 22] was 0 and the “Plant response rating, Field Bindweed” value [13, 23] was 0. For the same compound, the “Plant response rating, Field Bindweed” value [13, 25] was 0, the “Plant response rating, Field Bindweed” value [13, 24] was 0 and the “Plant response rating, Signalgrass” value [14, 18] was 5. For the same compound, the “Plant response rating, Signalgrass” value [14, 19] was 35, the “Plant response rating, Signalgrass” value [14, 20] was 50 and the “Plant response rating, Signalgrass” value [14, 21] was 50. The “Plant response rating, Signalgrass” value [14, 22] was 0, the “Plant response rating, Signalgrass” value [14, 23] was 0 and the “Plant response rating, Signalgrass” value [14, 24] was 10. The “Plant response rating, Black Mustard” value [15, 18] was 70, the “Plant response rating, Black Mustard” value [15, 26] was 95 and the “Plant response rating, Black Mustard” value [15, 20] was 100. The “Plant response rating, Black Mustard” value [15, 22] was 0, the “Plant response rating, Black Mustard” value [15, 23] was 50 and the “Plant response rating, Black Mustard” value [15, 25] was 75. For the same compound, the “Plant response rating, Black Mustard” value [15, 24] was 100.

In the case of COCCCn1c(-c2cc(F)cc(F)c2)ncc(C(=O)C2=C(O)C3CCC(C3)C2=O)c1=O (stereo not drawn) [Compound 244], the “Plant response rating, Groundsel” value ([1]; 31 g ai/ha, scale 0 to 100) is reported as 100, the “Plant response rating, Groundsel” value [1, 16] is reported as 100 and the “Plant response rating, Groundsel” value ([1]; 250 g ai/ha, scale 0 to 100 (0 no effect, 100 complete control)) is reported as 100. For the same compound, the “Plant response rating, Groundsel” value [1, 17] was 100, the “Plant response rating, Ryegrass, Italian” value [2, 19] was 5 and the “Plant response rating, Ryegrass, Italian” value [2, 20] was 35. The “Plant response rating, Ryegrass, Italian” value [2, 27] was 60, the “Plant response rating, Ryegrass, Italian” value [2, 21] was 15 and the “Plant response rating, Mallow” value [3, 19] was 50. The “Plant response rating, Mallow” value [3, 20] was 60, the “Plant response rating, Mallow” value [3, 27] was 70 and the “Plant response rating, Mallow” value [3, 21] was 50. For the same compound, the “Plant response rating, Bermudagrass” value [4, 19] was 80, the “Plant response rating, Bermudagrass” value [4, 20] was 95 and the “Plant response rating, Bermudagrass” value [4, 27] was 95. For the same compound, the “Plant response rating, Bermudagrass” value [4, 21] was 80, the “Plant response rating, Surinam Grass” value [5, 19] was 75 and the “Plant response rating, Surinam Grass” value [5, 20] was 80. The “Plant response rating, Surinam Grass” value [5, 27] was 80, the “Plant response rating, Surinam Grass” value [5, 21] was 75 and the “Plant response rating, Sandbur” value [6, 19] was 70. The “Plant response rating, Sandbur” value [6, 20] was 75, the “Plant response rating, Sandbur” value [6, 27] was 75 and the “Plant response rating, Sandbur” value [6, 21] was 70. The “Plant response rating, Dayflower, VA” value [7, 19] was 30, the “Plant response rating, Dayflower, VA” value [7, 20] was 65 and the “Plant response rating, Dayflower, VA” value [7, 27] was 70. For the same compound, the “Plant response rating, Dayflower, VA” value [7, 21] was 50, the “Plant response rating, Russian Thistle” value [8, 19] was 20 and the “Plant response rating, Russian Thistle” value [8, 20] was 60. The “Plant response rating, Russian Thistle” value [8, 27] was 65, the “Plant response rating, Russian Thistle” value [8, 21] was 40 and the “Plant response rating, Quackgrass” value [9, 19] was 20. For the same compound, the “Plant response rating, Quackgrass” value [9, 20] was 50, the “Plant response rating, Quackgrass” value [9, 27] was 65 and the “Plant response rating, Quackgrass” value [9, 21] was 40. The “Plant response rating, Guineagrass” value [11, 19] was 70, the “Plant response rating, Guineagrass” value [11, 20] was 75 and the “Plant response rating, Guineagrass” value [11, 27] was 75. The “Plant response rating, Guineagrass” value [11, 21] was 75, the “Plant response rating, Spanishneedles” value [12, 19] was 65 and the “Plant response rating, Spanishneedles” value [12, 20] was 75. For the same compound, the “Plant response rating, Spanishneedles” value [12, 27] was 75, the “Plant response rating, Spanishneedles” value [12, 21] was 65 and the “Plant response rating, Field Bindweed” value [13, 19] was 20. For the same compound, the “Plant response rating, Field Bindweed” value [13, 20] was 65, the “Plant response rating, Field Bindweed” value [13, 27] was 70 and the “Plant response rating, Field Bindweed” value [13, 21] was 35. The “Plant response rating, Signalgrass” value [14, 19] was 20, the “Plant response rating, Signalgrass” value [14, 20] was 25 and the “Plant response rating, Signalgrass” value [14, 27] was 35. For the same compound, the “Plant response rating, Signalgrass” value [14, 21] was 20, the “Plant response rating, Black Mustard” value [15, 19] was 50 and the “Plant response rating, Black Mustard” value [15, 20] was 95. The “Plant response rating, Black Mustard” value [15, 27] was 98 and the “Plant response rating, Black Mustard” value [15, 21] was 75.
